Earlier results as cited in patent publication US20110061649A1, “DEVICE AND METHOD FOR TREATING RESPIRATORY AND OTHER DISEASES” (priority 2007, published 2011).
“Also recorded” adds a separate entry of the source. Like-named read-outs stand apart in the source and are kept apart here.

Tests used:
[1] = tested on: methicillin-resistant staphylococcus aureus; conditions: allicin formulated into creams and soap
[2] = tested on: mammals cells
[3] = tested on: cysteine proteinases
[4] = tested on: vancomycin-resistant enterococci; conditions: allicin formulated into creams and soap
[5] = for storage without losing effectiveness / beneficial properties: Weizmann Institute article
[6] = tested on: alcohol dehydrogenases

## C=CCS[S+]([O-])CC=C (centres unmarked) [allicin]
[1]
  killing of methicillin-resistant staphylococcus aureus: killing
[2]
  level of allicin to which mammals cells proved to be immune: 50 Mm
[3]
  blocking of cysteine proteinases: blocking
[3]; listed as Allicin
  blocking of cysteine proteinases: Strongly Inhibits
[4]
  killing of vancomycin-resistant enterococci: killing
[5]; room temperature
  life span: less than an our; also recorded: about an hour
[5]; listed as natural compound
  storage without losing effectiveness / beneficial properties: loses its beneficial properties within hours
[5]; temperature not stated
  life span: few hours
[5]; temperature of 4° Celsius
  preserved stable: stable for months
[6]
  blocking of alcohol dehydrogenases: blocking

## C=CCS[S+]([O-])CC=C (centres unmarked) [pure semi-synthetic allicin, allicin]
[5]
  storage without losing effectiveness / beneficial properties: stored for months without losing its effectiveness
